Results on 5 compounds are retold here after patent US4698352A, “4-oxo-1,4-dihydronicotinic acid derivatives, salts thereof, and antibacterial agents containing the same” (Toyama Chemical Co., Ltd., priority 1982, dated 1987).

What all share (test): Antibacterial activity (MIC), agar dilution
Holding throughout (assay type): cell-based
In general terms: In agar dilution the substance is mixed into plates at graded concentrations.

The subject of assay [1] is E. coli TK-3*. As to conditions: Escherichia coli, 20 h, E. coli TK-3, penicillinase-producing; 10^6 cells per ml; read-out: MIC. The text has this: (§1) The amount of bacteria inoculated was 10^4 cells per plate (10^6 cells per ml).
(§2) * Penicillinase-producing bacteria

The test system of assay [2] is Ps. aeruginosa GN3379*. As to conditions: Pseudomonas aeruginosa, 20 h; Ps. aeruginosa GN3379, penicillinase-producing; 10^6 cells per ml; read-out: MIC.
From the text: as §1, §2

Assay [3] concerns Kl. pneumoniae Y-4*. Particulars: Klebsiella pneumoniae, 20 h, Kl. pneumoniae Y-4, penicillinase-producing; 10^6 cells per ml; read-out: MIC.
From the text: as §1, §2

Assay [4] concerns St. aureus F-137*. As to conditions: Staphylococcus aureus, 20 h, St. aureus F-137, penicillinase-producing; 10^6 cells per ml; read-out: MIC.
From the text: as §1, §2

Assay [5] relates to E. coli NIHJ JC-2. As to conditions: Escherichia coli, NIHJJC2, 20 h, E. coli NIHJ JC-2; 10^6 cells per ml; 37° C., 20 hours; read-out: MIC.
From the text: as §1

For assay [6], the system named is St. aureus FDA209P. As to conditions: Staphylococcus aureus, FDA209P, 20 h, St. aureus FDA209P; 10^6 cells per ml; 37° C., 20 hours; read-out: MIC.
From the text: as §1

Assay [7] concerns Pro. mirabilis T-111. Particulars: Proteus mirabilis, 37° C.
From the text: as §1

The test system of assay [8] is Pro. vulgaris GN3027. Particulars: Proteus vulgaris, GN3027, 20 h, Pro. vulgaris GN3027; 10^6 cells per ml; 37° C., 20 hours; read-out: MIC.
From the text: as §1

Assay [9] deals with Pro. morganii T-216. Particulars: Morganella morganii, 37° C.
From the text: as §1

The test system of assay [10] is Ent. cloacae IID977. Particulars: Enterobacter cloacae, IID977, 20 h, Ent. cloacae IID977; 10^6 cells per ml; 37° C., 20 hours; read-out: MIC.
From the text: as §1

In assay [11] the test system is E. coli TK-111. As to conditions: Escherichia coli, TK111, 20 h, E. coli TK-111; 10^6 cells per ml; 37° C., 20 hours; read-out: MIC.
From the text: as §1

Assay [12] concerns Kl. pneumoniae Y-41. Particulars: Klebsiella pneumoniae, Y41, 10^6 cells per ml, 37° C., 20 hours, read-out: MIC.
From the text: as §1

For assay [13], the system named is Kl. pneumoniae Y-50. Particulars: Klebsiella pneumoniae, Y50, 20 h, 10^6 cells per ml, 37° C., read-out: MIC.
From the text: as §1

The test system of assay [14] is Ps. aeruginosa IFO3445. Particulars: Pseudomonas aeruginosa.
From the text: as §1

In assay [15] the test system is Ps. aeruginosa S-68. As to conditions: Pseudomonas aeruginosa.
From the text: as §1

In assay [16] the test system is Ps. aeruginosa GN918**. As to conditions: Pseudomonas aeruginosa, Ps. aeruginosa GN918, cephalospolinase-producing, 10^6 cells per ml.
From the text: as §1
(§3) ** Cephalospolinase-producing bacteria

Assay [17] concerns Pro. vulgaris GN76**. Particulars: Proteus vulgaris.
From the text: as §1, §3

Assay [18] has as its system E. coli GN5482**. As to conditions: Escherichia coli, 20 h; E. coli GN5482, cephalospolinase-producing; 10^6 cells per ml; read-out: MIC.
From the text: as §1, §3

[19] abbreviates: T216, 10^6 cells per ml, 20 hours, read-out: MIC.
The mark [20] stands for this setting: 20 h, Pro. vulgaris GN76, cephalospolinase-producing, 10^6 cells per ml, read-out: MIC.
[21] abbreviates: Ps. aeruginosa IFO3445, 10^6 cells per ml, 37° C., 20 hours, read-out: MIC.
[22] abbreviates: S68, Ps. aeruginosa S-68, 10^6 cells per ml, 37° C., 20 hours, read-out: MIC.

In brackets after ≈: the same amount, converted by molar mass. Where two headings read alike, the source gives them in different places.

For the compound `O=C(O)c1cn(-c2ccc(O)cc2)c(-c2ccc3ccsc3c2)cc1=O`, the MIC (in general, the lowest concentration found to suppress growth) in assay [1] amounted to 0.39 µg/mL (≈ 1.07 µM); in assay [2], 3.13 µg/mL (≈ 8.61 µM); in assay [3], 1.56 µg/mL (≈ 4.29 µM); in assay [4] it was 0.1 µg/mL (≈ 0.275 µM); in assay [5] it was 0.2 µg/mL (≈ 0.55 µM); in [6], 0.1 µg/mL (≈ 0.275 µM). Besides, the MIC is 1.56 µg/mL (≈ 4.29 µM) in assay [7] (T111, 20 h, 10^6 cells per ml); not above 0.05 µg/mL in [8]; 0.39 µg/mL (≈ 1.07 µM) in assay [9] (setting [19]); 0.39 µg/mL (≈ 1.07 µM) in assay [10]; not above 0.05 µg/mL in [11]; 0.78 µg/mL (≈ 2.15 µM) in [12]. The MIC in assay [13] is 0.39 µg/mL (≈ 1.07 µM); in assay [14] (IFO3445, 20 h) it was 1.56 µg/mL (≈ 4.29 µM); in assay [15] (S68, 20 h), 1.56 µg/mL (≈ 4.29 µM); in assay [16] (20 h, read-out: MIC) it was 0.78 µg/mL (≈ 2.15 µM); in assay [17] (setting [20]) it was 0.39 µg/mL (≈ 1.07 µM); in assay [18], not above 0.05 µg/mL.

As to `Cc1nc2ccc(-c3cc(=O)c(C(=O)O)cn3-c3ccc(O)cc3)cc2s1`, the MIC in assay [1] amounted to 0.78 µg/mL (≈ 2.06 µM); in assay [2], 12.5 µg/mL (≈ 33 µM); in assay [3] it was 3.13 µg/mL (≈ 8.27 µM); in [4], 0.39 µg/mL (≈ 1.03 µM); in assay [5], 0.39 µg/mL (≈ 1.03 µM); in assay [6] it was 0.39 µg/mL (≈ 1.03 µM). For the same compound, the MIC in [7] (T111, 20 h, 10^6 cells per ml) turned out to be 3.13 µg/mL (≈ 8.27 µM); in assay [8] it was 0.39 µg/mL (≈ 1.03 µM); in assay [9] (T216, 20 h, 10^6 cells per ml), 3.13 µg/mL (≈ 8.27 µM); in assay [10], 1.56 µg/mL (≈ 4.12 µM); in [11], 0.2 µg/mL (≈ 0.529 µM); in [12] it was 3.13 µg/mL (≈ 8.27 µM). Also, the MIC in assay [13] is 0.39 µg/mL (≈ 1.03 µM); in assay [14] (setting [21]) it was 25 µg/mL (≈ 66.1 µM); in assay [15] (setting [22]), 12.5 µg/mL (≈ 33 µM); in assay [16] (20 h, read-out: MIC), 1.56 µg/mL (≈ 4.12 µM); in [17] (setting [20]), 0.78 µg/mL (≈ 2.06 µM); in assay [18], not above 0.05 µg/mL.

Regarding `Cc1nc2cc(-c3cc(=O)c(C(=O)O)cn3-c3ccc(O)cc3)ccc2s1`, the MIC in assay [1] is 0.78 µg/mL (≈ 2.06 µM); in [2] it was 6.25 µg/mL (≈ 16.5 µM); in [3], 3.13 µg/mL (≈ 8.27 µM); in [4] it was 0.78 µg/mL (≈ 2.06 µM); in [5], 0.39 µg/mL (≈ 1.03 µM); in assay [6], 0.39 µg/mL (≈ 1.03 µM). Besides, the MIC in assay [7] (T111, 20 h, 10^6 cells per ml) came out at 3.13 µg/mL (≈ 8.27 µM); in assay [8] it was 0.39 µg/mL (≈ 1.03 µM); in assay [9] (T216, 20 h, 10^6 cells per ml), 3.13 µg/mL (≈ 8.27 µM); in assay [10] it was 1.56 µg/mL (≈ 4.12 µM); in assay [11], 0.1 µg/mL (≈ 0.264 µM); in assay [12] it was 3.13 µg/mL (≈ 8.27 µM). Further, the MIC was 0.78 µg/mL (≈ 2.06 µM) in assay [13]; 12.5 µg/mL (≈ 33 µM) in [14] (setting [21]); 6.25 µg/mL (≈ 16.5 µM) in assay [15] (setting [22]); 1.56 µg/mL (≈ 4.12 µM) in assay [16] (20 h, read-out: MIC); 1.56 µg/mL (≈ 4.12 µM) in assay [17] (setting [20]); not above 0.05 µg/mL in [18].

Turning to `Cc1cc(O)ccc1-n1cc(C(=O)O)c(=O)cc1-c1ccc(-c2cccs2)cc1`, the minimal inhibitory concentration (MIC) in assay [1] is 0.39 µg/mL (≈ 0.967 µM); in assay [2], 3.13 µg/mL (≈ 7.76 µM); in [3], 0.78 µg/mL (≈ 1.93 µM); in assay [4] it was not above 0.05 µg/mL; in [5], 0.1 µg/mL (≈ 0.248 µM); in [6], not above 0.05 µg/mL. The MIC was 0.39 µg/mL (≈ 0.967 µM) in [7] (T111, 10^6 cells per ml, 20 hours, read-out: MIC); not above 0.05 µg/mL in assay [8]; 0.39 µg/mL (≈ 0.967 µM) in assay [9] (setting [19]); 0.39 µg/mL (≈ 0.967 µM) in [10]; not above 0.05 µg/mL in assay [11]; 0.78 µg/mL (≈ 1.93 µM) in [12]. In addition, the MIC in [13] was 0.39 µg/mL (≈ 0.967 µM); in [14] (setting [21]) it was 6.25 µg/mL (≈ 15.5 µM); in [15] (setting [22]), 1.56 µg/mL (≈ 3.87 µM); in assay [16] (20 h, read-out: MIC), 0.78 µg/mL (≈ 1.93 µM); in [17] (setting [20]), 0.2 µg/mL (≈ 0.496 µM); in assay [18], not above 0.05 µg/mL.

Consider `COCOC(=O)c1cn(-c2ccc(O)cc2)c(-c2ccc(N(C)C)cc2)cc1=O`, for which the MIC in [1] was 1.56 µg/mL (≈ 3.96 µM); in [2] it was 6.25 µg/mL (≈ 15.8 µM); in [3], 3.13 µg/mL (≈ 7.94 µM); in assay [4], 0.39 µg/mL (≈ 0.989 µM); in assay [5], 0.39 µg/mL (≈ 0.989 µM); in assay [6] it was 0.39 µg/mL (≈ 0.989 µM). The MIC in assay [7] (T111, 20 h, 10^6 cells per ml) amounted to 3.13 µg/mL (≈ 7.94 µM); in [8], 0.39 µg/mL (≈ 0.989 µM); in [9] (setting [19]) it was 1.56 µg/mL (≈ 3.96 µM); in [10], 1.56 µg/mL (≈ 3.96 µM); in assay [11], 0.2 µg/mL (≈ 0.507 µM); in [12], 3.13 µg/mL (≈ 7.94 µM). In addition, the MIC in assay [13] was 0.78 µg/mL (≈ 1.98 µM); in assay [14] (setting [21]), 6.25 µg/mL (≈ 15.8 µM); in assay [15] (S68, 20 h), 3.13 µg/mL (≈ 7.94 µM); in [16] (GN918, 20 h) it was 3.13 µg/mL (≈ 7.94 µM); in assay [17] (GN76, 20 h), 3.13 µg/mL (≈ 7.94 µM); in assay [18] it was not above 0.05 µg/mL.
